Data as given in patent publication US20260166045A1, “COMBINATION THERAPY COMPRISING GSPT1-DIRECTED MOLECULAR GLUE DEGRADERS AND PI3K/AKT/mTOR PATHWAY INHIBITORS” (Monte Rosa Therapeutics, Inc., priority 2022, published 2026).
Several values for one entry are separate records, joined by “and”; a condition that tells them apart may be missing. Equal entries are not always repeated.

Assays:
Assay in all cases: CellTiter-Glo 2.0 cell viability, 7x7 combination dose response matrix, synergy scoring
Format in all cases: cell-based
MDA-MB-157 cell line = conditions: first compound 0.41-100 nM
Source text: (§1) A study was undertaken to determine whether the combination of a GSPT1-directed MGD and an inhibitor of the PI3K/AKT/mTOR pathway could be effective in killing cancer cells and whether certain combination could elicit a greater than additive effect on cell killing.
(§2) FIG. 1 is a flow diagram of the method used to assess cancer cell killing by a combination of a GSPT1-directed MGD and an inhibitor of the PI3K/AKT/mTOR pathway. Certain of the materials and equipment used in the studies are presented in Table 3 and the cell lines used are presented in Table 4.
(§3) All assays were run in triplicate. Each 384-well plate accommodated six 7×7 dose response matrices (FIG. 2). All compound handling was performed using an Echo 650 Series Acoustic Liquid Handler, which enables fully automated, precise, contact-free acoustic transfer in volumes as low as 2.5 nL.
(§4) The following protocol was used for cell plating: • 1. Warm media to room temperature or 37° C. • 2. Prepare complete phenol-free media by adding 10% FBS+1% Pen-Strep to RPMI 1640 Medium or DMEM. • 3. Aspirate media from T175 tissue culture flask and rinse with 10 ml PBS. • 4. Aspirate PBS and add 2 mL 0.25% trypsin. Incubate the flask at 37° C. for 5 min or until cells are detached. • 5. Add 10 mL complete media to the flask to neutralize the trypsin, then collect cells in a 50 mL conical tube. • 6. Centrifuge cells at 300 g for 5 min. Aspirate media and suspend cell pellet in fresh media. Use cell strainer to strain cells into a new 50 mL conical tube. • 7. […] Mix 100 uL cell suspension with 100 uL trypan blue (1:1) and pipette 20 μL of the mixture into each of 2 counting chambers on a slide. Insert slide. • b. Adjust focus and record the live cell count. At least 2 independent measurements should be taken. […] Cell viability should be greater than 90%. […] Dilute cell suspension to the desired concentration (20000 cells/mL) using complete phenol-free media. Prepare 10 mL cell suspension per plate+an extra 10 mL for priming the liquid handler. • 9. Dispense cells into 384-well plates using the liquid handler at 25 uL/well (500 cells/well). 3 plates should be prepared per compound plate to be treated. • 10. Cells should be dispensed into columns 1-23 only. Media only (no cells) should be dispensed into column 24. • 11. Allow plates to rest at RT for 30 minutes before transferring to the incubator. Incubate cells overnight at 37° C., 95% humidity, and 5% CO2.
(§5) Compound plates were prepared as follows using an Echo 650 Series Acoustic Liquid Handler. • 1. A compound plate containing 7-point dose responses of each compound to be treated is first prepared from stock compounds. • 2. The cell plates are treated with compounds according to the following maps, where the first compound is added across all six 7 by 7 dose response matrices, and its concentration varies by row (FIG. 2; top matrix), whereas the second compound varies for each dose response matrix, and its concentration varies by column (FIG. 2; bottom matrix). Each cell plate receives one Compound A and six different Compound Bs. • 3. To prepare a compound plate, 384-well PP plate with stock compounds (highest concentration) is prepared. Compounds are diluted 1:1000 in the cell plates, e.g. 10 mM on compound plate will be 10 uM on cell plate. A 384-well LDV plate with pre-determined volumes of DMSO is prepared. Echo is used to dilute stock compounds from PP plate into LDV plate to prepare 7-point dose responses.
(§6) Compounds were added to the cells and cell viability was measured after 72 hour incubation using CellTiter-Glo 2.0 Cell Viability Assay (Promega): • 1. For a compound addition, Echo is used to transfer 25 nL from the compound plate wells to the cell plates according to the plate maps shown in FIG. 2. Cell plates are treated in triplicate. Each well of the cell plate has 25 uL media (1:1000 dilution). Incubate cells post-treatment at 37° C., 95% humidity, and 5% CO2 for 72 hrs (step 106). • 2. […]

EBC-1 cell line = system: EBC-1 cell line
Source text: as §1, §2, §3, §4, §5, §6

CAL51 mutant cell line = conditions: first compound 0.41-100 nM
Source text: as §1, §2, §3, §4, §5, §6

NCI-H1155 cell line = conditions: first compound 0.21-100 nM
Source text: as §1, §2, §3, §4, §5, §6

MCF7 cell line = system: MCF7 cell line
Source text: as §1, §2, §3, §4, §5, §6

[1] = combined with Alpelisib 41-10000 nM
[2] = combined with Capivasertib 41-10000 nM
[3] = combined with Everolimus 41-10000 nM
[4] = combined with GNE-477 41-10000 nM
[5] = combined with KU-0063794 41-10000 nM
[6] = combined with M2698 41-10000 nM
[7] = EBC-1, combined with Alpelisib 21-10000 nM, first compound 0.21-100 nM
[8] = EBC-1, combined with Capivasertib 21-10000 nM, first compound 0.21-100 nM
[9] = EBC-1, combined with Everolimus 2.1-1000 nM, first compound 0.21-100 nM
[10] = EBC-1, combined with GNE-477 21-10000 nM, first compound 0.21-100 nM
[11] = EBC-1, combined with KU-0063794 21-10000 nM, first compound 0.21-100 nM
[12] = EBC-1, combined with M2698 21-10000 nM, first compound 0.21-100 nM
[13] = combined with Everolimus 4.1-1000 nM
[14] = combined with Alpelisib 21-10000 nM
[15] = combined with Capivasertib 21-10000 nM
[16] = combined with Everolimus 2.1-1000 nM
[17] = combined with GNE-477 21-10000 nM
[18] = combined with KU-0063794 21-10000 nM
[19] = combined with M2698 21-10000 nM
[20] = MCF7, combined with Alpelisib 41-10000 nM, first compound 0.41-33.33 nM
[21] = MCF7, combined with Capivasertib 41-10000 nM, first compound 0.41-100 nM
[22] = MCF7, combined with Everolimus 41-10000 nM, first compound 0.41-100 nM
[23] = MCF7, combined with GNE-477 41-10000 nM, first compound 0.41-100 nM
[24] = MCF7, combined with HS173 41-10000 nM, first compound 0.41-100 nM
[25] = MCF7, combined with KU-0063794 41-10000 nM, first compound 0.41-100 nM
[26] = MCF7, combined with M2698 41-10000 nM, first compound 0.41-100 nM
[27] = MCF7, combined with Serabelisib 41-10000 nM, first compound 0.41-100 nM

## Cc1ccc(NC(=O)OCc2ccc3c(c2)C(=O)N(C2CCC(=O)NC2=O)C3)cc1Cl (stereo not shown) [Compound 1-6, [2-(2,6-dioxopiperidin-3-yl)-3-oxo-2,3-dihydro-1H-isoindol-5-yl]methyl N-(3-chloro-4-methylphenyl)carbamate]
MDA-MB-157 cell line; [1]
  Mean Bliss synergy score: 1.84
  Mean Loewe synergy score: 3.29
MDA-MB-157 cell line; [2]
  Mean Bliss synergy score: 6.73
  Mean Loewe synergy score: 5.04
MDA-MB-157 cell line; [3]
  Mean Bliss synergy score: 4.15
  Mean Loewe synergy score: 9.01
MDA-MB-157 cell line; [4]
  Mean Bliss synergy score: 0.86
  Mean Loewe synergy score: 4.66
MDA-MB-157 cell line; [5]
  Mean Bliss synergy score: 1.22
  Mean Loewe synergy score: 5.42
MDA-MB-157 cell line; [6]
  Mean Loewe synergy score: 5.62 and 4.44
EBC-1 cell line; [7]
  Mean Bliss synergy score: 17.01
  Mean Loewe synergy score: 3.84
EBC-1 cell line; [8]
  Mean Bliss synergy score: 16.12
  Mean Loewe synergy score: 6.11
EBC-1 cell line; [9]
  Mean Bliss synergy score: 7.12
  Mean Loewe synergy score: 8.08
EBC-1 cell line; [10]
  Mean Bliss synergy score: 10.24
  Mean Loewe synergy score: 2.07
EBC-1 cell line; [11]
  Mean Bliss synergy score: 8.70
  Mean Loewe synergy score: 4.67
EBC-1 cell line; [12]
  Mean Bliss synergy score: 8.18
  Mean Loewe synergy score: 8.00
EBC-1 cell line; combined with Everolimus (2.1 nM to 1 uM), EBC-1 cell line, mean across dose response matrix, 72 hrs
  Mean Loewe synergy score: 8.08
CAL51 mutant cell line; [1]
  Mean Bliss synergy score: −0.63
  Mean Loewe synergy score: −1.04
CAL51 mutant cell line; [2]
  Mean Bliss synergy score: 0.95
  Mean Loewe synergy score: −0.06
CAL51 mutant cell line; [13]
  Mean Bliss synergy score: −1.53
  Mean Loewe synergy score: −0.66
CAL51 mutant cell line; [4]
  Mean Bliss synergy score: −1.35
  Mean Loewe synergy score: −2.34
CAL51 mutant cell line; [5]
  Mean Bliss synergy score: −1.01
  Mean Loewe synergy score: −0.85
CAL51 mutant cell line; [6]
  Mean Bliss synergy score: 0.82
  Mean Loewe synergy score: −0.62
NCI-H1155 cell line; [14]
  Mean Bliss synergy score: 5.23
  Mean Loewe synergy score: 2.10
NCI-H1155 cell line; [15]
  Mean Bliss synergy score: 5.58
  Mean Loewe synergy score: 4.36
NCI-H1155 cell line; [16]
  Mean Bliss synergy score: −1.66
  Mean Loewe synergy score: 6.77
NCI-H1155 cell line; [17]
  Mean Bliss synergy score: 3.25
  Mean Loewe synergy score: 3.14
NCI-H1155 cell line; [18]
  Mean Bliss synergy score: 3.66
  Mean Loewe synergy score: 2.43
NCI-H1155 cell line; [19]
  Mean Bliss synergy score: 2.04
  Mean Loewe synergy score: 4.27
MCF7 cell line; [20]
  Mean Bliss synergy score: 3.23
  Mean Loewe synergy score: 9.38
MCF7 cell line; MCF7, combined with Alpelisib 41-10000 nM, first compound 0.41-100 nM
  Mean Loewe synergy score: 10.18 and 8.52
MCF7 cell line; [21]
  Mean Bliss synergy score: 14.01 and 11.86
  Mean Loewe synergy score: 12.75 and 11.61
MCF7 cell line; [22]
  Mean Bliss synergy score: 10.05
  Mean Loewe synergy score: 17.80
MCF7 cell line; [23]
  Mean Bliss synergy score: 0.14
  Mean Loewe synergy score: 6.12
MCF7 cell line; [24]
  Mean Bliss synergy score: 0.74
  Mean Loewe synergy score: 3.72
MCF7 cell line; [25]
  Mean Bliss synergy score: 5.02
  Mean Loewe synergy score: 9.44
MCF7 cell line; [26]
  Mean Bliss synergy score: 2.92 and 3.60
  Mean Loewe synergy score: 10.25 and 9.07
MCF7 cell line; [27]
  Mean Bliss synergy score: 4.69
  Mean Loewe synergy score: 4.49
MCF7 cell line; combined with Capivasertib, MCF7 cell line (printed in Example 5, lung cancer cell lines), mean across dose response matrix, 72 hrs
  Mean Loewe synergy score: 16.02
MCF7 cell line; combined with KU-0063794 (41 nM to 10 uM), MCF7 cell line, mean across dose response matrix, 72 hrs
  Mean Loewe synergy score: 9.44
